Results on one compound are retold here after publication PMC8901748, “A novel prostaglandin E receptor 4 (EP4) small molecule antagonist induces articular cartilage regeneration” (Cell Discovery, 2022).

Assay [1] has as its system AP-1-Luc in ATDC5 cells. The experiment in a line: AP-1-Luc luciferase reporter assay. Type of assay: cell-based, mouse. Particulars: 2 ng/ml IL-1β, 30 μM HL-43, 6 h. The protocol: (§1) Six firefly luciferase reporters were used in the Luciferase assay, including CRE-Luc (PathDetect CRE cis-Reporting System; Stratagene, La Jolla CA) driven by a basic promoter (TATA box) plus four repeats of CRE; Sox9 promoter-Luc contains human SOX9 proximal promoter region (−1034 bp to +67 bp)[45]; 4 × 48-p89-Luc, mouse Col2a1 minimal promoter. AP-1-Luc, Nf-κb-Luc, STAT-Luc were obtained from Stratagene. Chondrocytes were cultured in 24-well plates and 300 ng firefly luciferase reporter constructs were transiently transfected using transfection reagent TransExellent-DNA (Cenji Biotech Inc, China) following manufacturer’s instruction, and 15 ng of the Copia-Renilla luciferase reporter was co-transfected as a normalization control. Cells were treated with the indicated reagents for 48 h after transfection. The Dual-Luciferase measurements were performed in triplicate using the Luciferase assay kit (Promega) and a LUMIstar Omega luminometer (BMG Labtech, Mornington, Australia).
(A reporter such as luciferase makes a cellular process visible.)

In assay [2] the test system is Mmp3, Mmp13, Col2, p-CREB, p-STAT3, p-p65, IκBα in primary mouse chondrocytes. In words: Western blotting in primary articular chondrocytes. Type of assay: cell-based. On the procedure:
(§2) ATDC5 cell line was purchased from Riken BioResource Center (Tsukuba, Japan) and grown in a 1:1 mixture of DMEM/F12 medium (Corning, 10-092-CVR) supplemented with 5% fetal bovine serum (Gibco, 10099, USA) and 1% penicillin-streptomycin solution (Life Technologies). Cells were maintained at 37 °C under 5% CO2. Primary chondrocytes were obtained from knee joint cartilage of newborn mice. Knee joints were dissected from the tibia plateau and femoral condyle articular cartilage of mouse pups and digested in 0.1% collagenase type II (Sigma) overnight at 37 °C and chondrocytes were harvested by centrifugation. Primary chondrocytes were cultured at a density of 5 × 10^3 cells per ml at 37 °C with 5% CO2. DMEM/F12 medium with 10% fetal bovine serum (FBS) and 1% penicillin–streptomycin was used to culture the primary chondrocytes. Chondrogenic differentiation were induced with chondrogenic medium, which contains insulin-transferrin-selenium (ITS) (Sigma, I3146), 10 ng/ml TGF-β3 (PEPROTECH, 100-36E, USA), 100 nM Dexamethasone (Sigma, D4902), 50 μg/ml VC (Sigma), 1 mM sodium pyruvate (Sigma) and 40 μg/ml proline (Sigma), and/or treatment with rmIL-1β (R&D, 401-ML/CF), TNFα (PEPROTECH, 300-01A-50) in DMEM/F12 for indicated days. Western blotting was performed according to standard protocols. Antibodies used were: rabbit anti-Mmp3 (1:1000, HuaBio), rabbit anti-Mmp13 (1:500, abcam, ab39012), rabbit anti-p-CREB (1:2000, Cell Signaling Technology, 87G3), rabbit anti-CREB (1:2000, Cell Signaling Technology, 48H2), mouse anti-GAPDH (1:5000; Sigma-Aldrich, G8795), rabbit anti-Col2 (Abcam, Ab34712), rabbit anti-STAT3 (1:2000; Abcam, ab68153), rabbit anti-p-STAT3 (Y705) (1:2000; Abcam, ab76315), rabbit anti -p65 (1:1000; CST, 3034), rabbit anti-p-p65 (1:1000; CST, 3033), and rabbit anti-IκBα (1:1000; Abways, CY5026).
(In general: In western blotting, separated proteins are transferred to a membrane and probed.)

The subject of assay [3] is Sox9 target genes in ATDC5 cells. The experiment in a line: qRT-PCR of Sox9 target genes in ATDC5 cells. It is filed as cell-based, mouse. Conditions: 30 μM HL-43, 24 hr. The protocol: (§3) Quantitative RT-PCR was performed to measure the relative mRNA levels. RNA samples were prepared from the chondrocytes using Trizol (Takara). cDNA was generated using the Prime Script RT reverse transcriptase kit (Yeasen, Drr036a). Primers used for amplification were shown in Supplementary Table S1, GAPDH was used as the house keeping gene.
(In qPCR the cycle at which signal appears reflects the starting amount.)

The test system of assay [4] is 4 × 48-p89-Luc (Sox9 binding enhancer, Col2a1 minimal promoter) in ATDC5 cells. In words: 4 × 48-p89-Luc luciferase reporter assay. It is filed as cell-based, mouse. On the procedure: as §1
For assay [5], the system named is Col2a1, Acan, Mmp3, Mmp9, Mmp13 expression in primary mouse chondrocytes. In words: qRT-PCR of anabolic and catabolic factors in primary chondrocytes. It is filed as cell-based. The protocol: as §2, §3
Assay [6] has as its system human articular cartilage explants. The experiment in a line: Human articular cartilage explant culture (S.O. staining, DMMB assay, qRT-PCR, immunohistochemistry). It is filed as cell-based. The source says:
Human articular cartilage explants of OA patients undergoing total knee replacement surgery were collected (3 mm × 3 mm), with the approval of the Human Ethics Committee of Shanghai Sixth People’s Hospital (2021-048). The full thickness cartilage tissue samples were harvested from tibia plateau avoiding subchondral bone. We control the quality of the explants according to the principle mentioned below. (1) The human articular cartilage explants were harvested from the relatively intact region of the tibia plateau. (2) The explants from different patients were cut from the same position of tibia plateau avoiding subchondral bone. (3) The explants were cut in the size of 3 mm × 3 mm for the DMMB assay and the S.O. staining. (4) To avoid inter-patient and intra-patient sample heterogeneous, explants used within the same drug experiment (vehicle and treatment) must be collected in locations in close proximity and from the same patient. Each explant in the groups that treated with the same drug was from the same patient. The cartilage explants for Safranin-O/Fast-green (S.O.) staining and immunofluorescence were fixed in 4% paraformaldehyde (PFA) (wt/vol) overnight at 4 °C, embedded in paraffin, sliced (7 μm) and mounted on positively charged slides. The cartilage explants (3 mm × 3 mm) for DMMB assay and S.O. staining were harvested and placed in 24-well plates and cultured in 1 ml of serum-free F12 culture media for 24 h. n ≥ 4 patients were assessed. The media was then replaced with F12 culture media containing serum, added 1 ng/ml IL-1β, Celecoxib, Grapiprant, HL-43, and explants were cultured for a further 7 days. The culture media was collected for the release of glycosaminoglycans. To quantify GAGs, media were mixed with DMMB in formate buffer and absorbance at 535 nm was determined using a Spectramax plate reader (Molecular Devices, Sunnyvale, CA). […] We calculated the proteoglycan staining area using Image J with a region of interest of a 1 × 1 mm square, drawn at the edge of the cartilage surface under 10× objective. […]

The mark [7] stands for this setting: primary mouse chondrocytes, 24 h.

Turning to `C[C@H](NC(=O)c1c(-c2ccccc2)nnn1CCOc1ccc(F)cc1)c1ccc(C(=O)O)cc1` [HL-43], the “AP-1 luciferase reporter activity” value in assay [1] was “not AP-1 or NF-κB”. Further, the “Phosphorylation of CREB by Western blotting” value in assay [2] (chondrocytes, 2 ng/ml IL-1β, 100 nM PGE2, 1 h) is “enhanced by HL-43 in a dose-dependent manner”. Moreover, the “Mmp3/13 expression by Western blotting” value in assay [2] (primary articular chondrocytes, 1 ng/ml IL-1β, 24 h) is given as “downregulated Mmp3/13 expression in a dose-dependent manner”. The “Phosphorylation of STAT3” value in assay [2] (primary mouse articular chondrocytes, 2 ng/ml IL-1β, 1 h) is given as “reduced the phosphorylation of STAT3”. Also, in assay [2] (primary mouse articular chondrocytes, IL-1β, 30 μM HL-43, 1 h), the “Phosphorylation of p65 and degradation of IκBα” value is listed as “little effects”. For the same compound, in assay [2] (setting [7]), the “Col2 expression by Western blotting” value is “dose-dependently induced Col2 expression”. For the same compound, the “Sox9 target genes (Col2a1, Acan, Sox5, Col9a1, Col11a1, Col27a1, Dcn, Prg4), qRT-PCR” value in assay [3] is “upregulated”. In assay [4], the “4 × 48-p89-Luc reporter activity” value is “dose-dependently increased”. In assay [5] (2 ng/ml IL-1β, 24 h), the “EP4 and STAT3 dependent increase in MMP3/13 expression” value is recorded as “dose-dependently inhibited”. Also, the “Expression of catabolic factors (Mmp3, Mmp9, and Mmp13)” value in assay [5] (primary mouse chondrocytes, 1 ng/ml IL-1β, 24 h) is “attenuated the expression of catabolic factors (Mmp3, Mmp9, and Mmp13) in a dose-dependent manner”. Moreover, the “Expression of anabolic factors (Col2a1 and Acan)” value in assay [5] (setting [7]) is recorded as “promoted the expression of anabolic factors”. Besides, the “Col2a1 expression (screen of EP4 antagonists)” value in assay [5] (primary murine chondrocytes, 1 ng/ml IL-1β, 24 hr, EP4 antagonists (2 nM)) is on record as “highest potency in inducing Col2a1 expression”. For the same compound, the “Mmp3 expression (screen of EP4 antagonists)” value in assay [5] (primary murine chondrocytes, 1 ng/ml IL-1β, 24 hr, EP4 antagonists (30 μM)) is on record as “reducing Mmp3 expression”. The “Percentage area of proteoglycan by S.O. staining” value in assay [6] (human OA cartilage explants, 1 week) is given as “increased with HL-43 treatment in a dose-dependent manner”. Further, in assay [6] (human cartilage explants), the “Immunohistochemistry of ACAN, SOX9, MMP13, COLX” value is “inducted anabolic factors (ACAN and SOX9), and suppressed catabolic factor (MMP13), and hypertrophic marker (COLX)”. Also, the “Expression of anabolic factors (COL2A1, ACAN, SOX9) and catabolic factor (MMP13), qRT-PCR” value in assay [6] (human explants, 1 ng/ml IL-1β, 24 h, Celecoxib 10 μM, Grapiprant and HL-43 30 μM) is recorded as “best efficacy”.
